Blank lines part the entries; values can stand above or below the molecule they belong to.
Experiments:
[1] = system: carrageenan-induced paw edema in mice; assay: Carrageenan paw edema model in mice; assay type: in vivo, mouse; conditions: C57BL/6 mice, compared with vehicle control group
From the text: Inflammation models induced by carrageenan are frequently used acute inflammation models. Carrageenan (Cg) is a strong chemical agent that functions in stimulating the release of inflammatory and proinflammatory mediators, including bradykinin, histamine, tachykinins, reactive oxygen, and nitrogen species. Typical signs of inflammation include edema, hyperalgesia, and erythema, which develop immediately following the treatment of carrageenan. This example evaluated the effect of AAV-mediated gene delivery of Lanadelumab on carrageenan-induced paw edema in mice.
In total eighty young adult (8-9 weeks old) male C57BL/6 mice were used for this study. Paw edema was induced by a single subcutaneous (s.c.) injection of 30 μL of 0.7% or 1% carrageenan solution. […] Paw volume was measured using a digital Plethysmometer prior to carrageenan injection, and at 2, 4, 6, 8, 24 and 48 hours after injection. All animals were sacrificed 48 hours after carrageenan injection. Liver and paw specimens were also collected at the necropsy.

[2] = target: activated human plasma kallikrein (Enzyme Research Laboratories) (human) (UniProt P03952); assay: cell-based or functional assay

Molecule: O=C(O)Cc1ccccc1Nc1c(Cl)cccc1Cl [diclofenac, Diclofenac]
paw volume after carrageenan injection ([1]; 0.7% Cg model): significant decrease on paw volume was observed only at 4 and 24 hours | paw volume after carrageenan injection ([1]; 1.0% Cg model): significantly decreased the paw volume at 2, 4, 6, 8 and 24 hours

suppression of pKal activity (PFR-AMC fluorogenic kinetic enzymatic assay, antibody dose response) [2]: 0.1 nM
B1: Lanadelumab (GenScript), purified IgG (antibody, V domains shown)
VH: EVQLLESGGGLVQPGGSLRLSCAASGFTFSHYIMMWVRQAPGKGLEWVSGIYSSGGITVYADSVKGRFTISRDNSKNTLYLQMNSLRAEDTAVYYCAYRRIGVPRRDEFDIWGQGTMVTVSS
VL: DIQMTQSPSTLSASVGDRVTITCRASQSISSWLAWYQQKPGKAPKLLIYKASTLESGVPSRFSGSGSGTEFTLTISSLQPDDFATYYCQQYNTYWTFGQGTKVEIKR

percent reduction in pKal activity (serum diluted 1:25, day 49 post-administration vs day -7; PFR-AMC assay) [2]: 50%
B2: vectorized lanadelumab (AAV8 ApoE.hAAT.L02-derived) in serum, or in total IgG purified from serum, of treated C57BL/6 mice (antibody, V domains shown)
VH: B1 VH
VL: B1 VL

Reference: US20220195462A1, “FULLY-HUMAN POST-TRANSLATIONALLY MODIFIED ANTIBODY THERAPEUTICS” (REGENXBIO INC., priority 2019, published 2022)
